From patent US10457702B2, “Dicaffeoyl spermidine cyclized derivatives and use thereof” (Jinan University, priority 2016, dated 2019)

Tests used:
[1] = Oxygen radical absorbance capacity (ORAC) antioxidant experiment; details: for ORAC value (μmol TE/μmol): relative to Trolox standard, AAPH, fluorescein
Protocol: The antioxidant activity of the compounds was evaluated by using the oxygen radical absorbance capacity (ORAC) experiment. The detailed experimental procedure is as follows. 0.248 g of AAPH (2,2′-azobisisobutylamidine dihydrochloride) was added to a 50 mL phosphate buffer system to formulate a 18.3 mM AAPH stock solution. 20 μL of phosphate buffer, 20 μL solution of sample to be tested or standard substance Trolox (concentration of 6.25 μM) and 20 μL of fluorescent substance of disodium fluorescein (FL, concentration of 630 nM) were added into the wells of a 96-well plate in order. Then, 140 μL of AAPH (concentration of 18.3 mM) was quickly added to the wells of a 96-well plate, which was immediately placed in a GENios […] microplate reader manufactured by Tecan, Switzerland, the excitation wavelength was set as 485 nm and the emission wavelength was set as 527 nm. The fluorescence intensity was measured every 2 minutes and recorded for a total of 100 min.
The antioxidant capacity of the active substance is calculated as follows: Relative ORAC value=(AUCsample−AUCblank)/(AUCtrolox−AUCblank). Wherein, AUCsample refers to the integral area under the fluorescence decay curve of the test sample, AUCtrolox refers to the integral area under the fluorescence decay curve of the standard substance Trolox, and AUCblank refers to the integral area under the fluorescence decay curve when the test sample or the standard substance Trolox is not added.

[2] = tested on: Senile dementia fruit fly (Aβ42, P35*H29.3); assay: Learning and memory (olfactory short-term memory, T-Maze performance index) of Senile dementia fruit fly; assay type: in vivo; details: for improvement of learning and memory function of Senile dementia fruit fly (in words): 100 μM, compared with untreated disease flies and positive control drug memantine; for PI (100 μM) learning and memory performance index: Senile dementia disease flies (P35*H29.3), drug administered at 100 μM, n = 6
Description: (1) Cultivation of Senile Dementia Fruit Fly W^1118 (isoCJI), as a background fruit fly of control group in the experiment, was abbreviated as “2U”. The fruit flies that successfully introduced with the pathogenic Aβ42 protein were (UAS-Aβ42; abbreviated as “H29.3”). This strain of fruit flies was hybridized with the fruit fly expressing the Gal4 promoter in whole brain, and the fruit fly strain carrying elav-GAL4^[…] (P35) and Aβ42 was obtained. (2) Administration of Senile Dementia Fruit Fly Three groups of drug-free control of healthy fruit fly, drug-free control of disease fruit fly, and dose disease fruit fly were set in the experiment. All parents of tested fruit flies were housed and propagated at a constant temperature of 24° C. and a humidity of 42% RH (Relative humidity). On the first day after the emergence of the fruit flies, the fruit flies of control group and disease group, as well as the fruit flies to be administered were anesthetized with carbon dioxide, and the fruit flies of the correct characters were selected into the glass tube containing food. During the dosing period, all test fruit flies were kept in an incubator with a constant temperature of 28° C. and a constant humidity of 42% to ensure the drug taking efficiency of the fruit flies. Each day the fruit flies were administered for 4 hours, and the drug was administered from the second day after the fruit flies were selected until the 8th day. The drugs administered were prepared on the second day after the fruit fly selection, and were administered to the fruit flies on the day of preparation. The drugs were dissolved by 100% DMSO to a concentration of 10 mM. When preparing the working solution, the 10 mM stock solution was diluted to 100 μM with 4% sucrose. In addition, the fruit flies of control group were fed sucrose water containing 1% DMSO. For each Performance Index, two tubes of fruit fly groups are required, each tube containing about 100 fruit flies. Experiments were conducted in a light proof behavior room with constant temperature of 25 ° C., constant humidity of 70%. The method can be found in references ^[1-3]. 1) During the training stage, about 100 flies were loaded into a training tube provided with a copper mesh cross electrode. Two kinds of odors of octanol (OCT) and methylcyclohexanol (MCH) were successively introduced for each 60 s with an intervals for 45 s of fresh air. 60 V pulsed electrical shock stimulation (US, pulse duration 1.5 s, interval 3.5 s) was applied to the fruit flies while introducing the 1st odor. No electrical shock was applied when the second odor (CS-) was introduced. Thereby one training cycle was completed. 2) In the transient memory (learning) ability test, the fruit flies that completed one training cycle were immediately transferred to the selection point of T-Maze, while CS+ and CS- were introduced from the opposite two directions. After two minutes of selection, the fruit flies on both sides were collected separately and counted after anesthesia or sacrifice. […] When performing the activity test, the short-term memory deficit tests for the olfactory sensation of the non-administered healthy flies with the same genetic background (2U*H29.3), non-administered Senile dementia disease flies (P35*[…].3), and test drug administered Senile dementia disease flies were also conducted, and their total learning and memory performance indexes (PIs) was calculated respectively. […]

Row | SMILES | ORAC value (μmol TE/μmol) [1] [μmol TE/μmol] | improvement of learning and memory function of Senile dementia fruit fly (in words) [2] | PI (100 μM) learning and memory performance index [2] | antioxidant activity (in words) ([1]; ORAC, compared with positive control EGCG)
1 | O=C(O[C@@H]1Cc2c(O)cc(O)cc2O[C@@H]1c1cc(O)c(O)c(O)c1)c1cc(O)c(O)c(O)c1 [EGCG, epigallocatechin gallate, reference compound] | 1.48 ± 0.02 |  |  | 
2 | O=C1/C=C/c2ccc(O)c(c2)Oc2cc(O[C@@H]3O[C@H](CO)[C@@H](O)[C@H](O[C@@H]4O[C@H](CO)[C@@H](O)[C@H](O)[C@H]4O)[C@H]3O)c(O)cc2CCC(=O)NCCCCNCCCN1 [Formula III] | 0.96 ± 0.03 | superior to the positive control drug | 45.9 ± 1.9*** | 
3 | O=C1/C=C/c2ccc(O)c(c2)Oc2cc(O[C@@H]3O[C@H](CO)[C@@H](O)[C@H](O)[C@H]3O)c(O)cc2CCC(=O)NCCCCNCCCN1 [Formula II] | 1.48 ± 0.01 | significantly improve the learning and memory function | 37.1 ± 2.2** | comparable to that of the positive control drug
4 | CC12CC3CC(C)(C1)CC(N)(C3)C2 [Memantine, memantine, reference compound] |  |  | 44.2 ± 2.1*** | 
